# Reference: patent publication EP4316475A1, “MERKEL CELL ACTIVATOR, SYNAPTIC VESICLE ENHANCER, NEUROTRANSMITTER RELEASE ACCELERATOR, METHOD FOR ASSESSING NEUROTRANSMITTER RELEASE ACTIVITY OF MERKEL CELLS, AND METHOD FOR SCREENING FOR NEUROTRANSMITTER RELEASE ACCELERATOR FOR MERKEL CELLS” (Shiseido Company, Ltd., priority 2021, dated 2022)
# Entries after “also recorded” stand apart in the source; their conditions may differ.
# Experiments:
# [1] = system: Merkel cells; assay: Piccolo expression in CK20-positive Merkel cells of cultured scalp samples (fluorescent immunohistochemical staining); assay type: cell-based, Human; settings: Sandalore 500 µM in medium from day 1, samples collected day 3, control 0.1% DMSO
# Source text: Human scalp from the temporal and occipital regions was taken from healthy female subjects (47 to 60 years of age) that had received common cosmetic surgery, and used after obtaining informed consent and ethical approval (Muenster University).
# Scalp samples including hair follicles were taken using a 6 mm punch from the occipital region (donors 1, 2, 3 and 4) or the temporal region (donor 5) of subjects: a person (donor 1), a person (donor 2), a person (donor 3), a person (donor 4) and a donor 5). The obtained samples were placed in 25 ng/ml NGF-added DMEM/F12 medium and cultured in a 5% CO2 humidified atmosphere at 37°C (day 0). […]
# The primary antibodies used were anti-CK20 antibody (distributor: Progen, Product No.: Product No.: 61054) and anti-Piccolo antibody (distributor: Novus Biologicals (Tocris), Product No.: NBP1-90250), and the subsequent secondary antibodies used were Goat anti-Rabbit IgG (H+L) Cross-Adsorbed Secondary Antibody (distributor: Invitrogen, Product No.: A-11008) and Goat anti-Mouse IgG (H+L) Highly Cross-Adsorbed Secondary Antibody (distributor: Invitrogen, Product No.: A-11030), in combination with each of the primary antibodies, respectively. […] The number of CK20-positive cells expressing Piccolo in a specified region in a photograph taken under a fluorescent microscope were counted and shown in a graph (Fig. 4C).
# [2] = system: Merkel cells; assay: Neurotransmitter release by Merkel cells in fresh skin epidermis ex vivo (FFN206 fluorescent tracer live imaging); assay type: cell-based, human; settings: 500 µM Sandalore/BSS solution circulated from 300 s to 600 s; control BSS solution alone
# Protocol: Fresh skin excised from the abdominal region of a healthy subject and a healthy subject, both having undergone cosmetic surgery, was used for experimentation within 5 days, after obtaining informed consent and ethical approval. The skin was exposed to 25 units/ml of a dispase-PBS solution for 15 minutes at 37°C to detach the epidermis.
# The epidermis isolated from the fresh human skin was cultured for 30 minutes in a high-potassium extracellular solution (5 mM NaCl, 140 mM KCl, 10 mM HEPES (pH 7.4), 10 mM D-glucose, 2 mM MgCl2 and 2 mM CaCl2) containing FFN206 (Tocris, Catalog No. 5043), and the fluorescent-labeled neurotransmitter FFN206 was specifically taken up into the Merkel cells.
# BSS (Balanced salt solution) solution (140 mM NaCl, 5 mM KCl, 10 mM HEPES (pH 7.4), 10 mM D-glucose, 2 mM MgCl2 and 2 mM CaCl2) was circulated for the first 5 minutes, as baseline. After 5 minutes (300 s) until the end of observation (600 s), circulation was with 500 µM Sandalore (Givaudan)/BSS solution (A). […]
# The cell response was evaluated based on the brightness value of FFN206, using cellSens (Olympus) and MATLAB (Mathworks). […] The change in brightness value of the baseline in each ROI was determined by nonlinear approximation, and the brightness value with the effect of discoloration eliminated was determined based on the approximation results for baseline. […]
smiles,measurement,setting,value
"CC1=CCC(CCC(C)C(C)O)C1(C)C (centres unmarked) [Sandalore, 3-methyl-5-(2,2,3-trimethyl-cyclopenta-3-en-1-yl)-pentan-2-ol]",number of CK20-positive cells expressing Piccolo in a specified region,[1],increased the number of Merkel cells expressing Piccolo
same,fluorescent brightness value of Merkel cells (FFN206 signal),[2],the fluorescent brightness value decreased; also recorded: the brightness value continued to decrease beyond the reaction line calculated from baseline
